pIC50: −log10 of the molar value. Ends that are not written are not given here.
Experiments:
[1] = test system: Caco-2 polarized monolayer; test: Caco-2 permeability assay, bidirectional transport; format: in vitro ADME, human; conditions: Caco-2 polarized monolayer (21 days, TEER > 400 Ω cm^2), 5 µM FITC-labeled NaD1, HBSS transfer buffer pH 7.4, 90 min
Protocol: Caco-2 (ATCC HTB-37) cells were thawed and cultured in complete DMEM/F-12 culture medium (Corning), supplemented with 10% FBS in a humidified CO2-intubator. After the culture was subcultivated three times, the cells were seeded on cell inserts (PET, 0.4 μm, 0.6 cm^2 surface area, SPL Life Sciences, Pocheon-si, Republic of Korea) at a density of 2.5 × 10^5 cells/cm^2. Cells were grown for 21 days with re-feeding with the fresh medium every 2–3 days. To evaluate integrity of Caco-2 monolayer, a transepithelial electrical resistance (TEER) was measured by Millicell ERS-2 Voltohmmeter (Merck-Millipore, Burlington, MA, USA). Only inserts with TEER > 400 Ω cm^2 were used in the transport assay.
The permeability assay was conducted in transfer buffer (HBSS solution, containing 1 mM CaCl2, 1 mM MgCl2, 10 mM D(+)glucose, pH 7.4). […]
The apparent permeability coefficients (Papp) were calculated for each insert according to the following equation: Papp = dQ/dt × (1/(A × C0)), where dQ/dt is an amount of product present in the basolateral or apical chamber as a function of time (nM/s), A is an area of the insert (in cm^2) and C0 is an initial concentration of NaD1 in the apical or basolateral chamber (nM/mL). […]

[2] = test system: Candida albicans ATCC 18804; test: Antifungal microdilution assay with or without LPS or zymosan; format: cell-based
Protocol: The antifungal assay was performed by the microdilution method using 96-well microplates as described. Briefly, C. albicans ATTC 18804 cells in stock were inoculated onto Sabouraud agar plates with 2% glucose and incubated for 24 h at 37 °C. After replating, cells were inoculated in Sabouraud broth and cultured at 37 °C for 2 h. The cell concentration was determined using a LUNA-II cell counter (Logos Biosystems, Anyang-si, Republic of Korea). Yeast cells in Sabouraud broth diluted to concentration of 4 × 10^4 cells/mL were mixed with equal volumes of serial two-fold dilutions of the peptides in water and the plates were incubated at 30 °C for 24 h. The final peptide concentrations in the wells were 25, 12.5, 6.25, 3.13, 1.56, 0.78 and 0.39 μM. Controls without peptides were also tested. […] Yeast growth was assessed using an inverted light microscope and also by measuring absorbance at 630 nm. The minimum inhibitory concentrations IC50 and MIC were defined as the lowest peptide concentrations inhibiting fungal growth by at least 50 and 100%, respectively. […] The MFCs corresponded to the minimal peptide concentration, in which no colony growth was observed.
To estimate the effects of LPS and zymosan on the antifungal activity of NaD1 and LL-37, these PAMPs were added in culture media at concentrations of 10, 40 and 100 μg/mL [39, 40]. All of the experiments were performed twice in triplicate.

Q: “NaD1: Recombinant tobacco floral defensin NaD1 (UNIPROT Q8GTM0), obtained by heterologous expression in E. coli; FITC-labeled in the permeability assay (RECKTESNTFPGICITKPPCRKACISEKFTDGHCSKILRRCLCTKPC; cysteine pairing not given here; also: FITC label; UniProt Q8GTM0 26-72, looked up)” was tested. Which “Apparent permeability coefficient Papp, A→B (absorptive)” value ([1]; apical to basolateral, mean of 6 independent inserts) did it give?
A: Its value is 2.72 ×10⁻⁶ cm/s.

Q: What about the “Apparent permeability coefficient Papp, B→A (secretory)” value ([1]; basolateral to apical, mean of 4 independent inserts) of the same substance?
A: Its value is 2.22 ×10⁻⁶ cm/s.

Q: And the pIC50 ([2]; 10 μg/mL LPS)?
A: The pIC50 was 5.20 to 5.51.

Q: And the MFC ([2]; 10 μg/mL LPS)?
A: The MFC was 12.5 µM.

Q: What about the MIC ([2]; 10 μg/mL LPS) of the same substance?
A: The MIC was 6.25 µM.

Q: And the pIC50 ([2]; 10 μg/mL Zymosan)?
A: Its pIC50 is 5.20 to 5.51.

Q: What about the MFC ([2]; 10 μg/mL Zymosan) of the same substance?
A: The MFC was 12.5 µM.

Q: And the MIC ([2]; 10 μg/mL Zymosan)?
A: The MIC was 6.25 µM.

Q: And the pIC50 ([2]; 40 μg/mL LPS)?
A: The pIC50 was 5.20 to 5.51.

Q: And the MFC ([2]; 40 μg/mL LPS)?
A: The MFC was 12.5 µM.

Q: What about the MIC ([2]; 40 μg/mL LPS) of the same substance?
A: Its MIC is 6.25 µM.

Q: What about the pIC50 ([2]; 40 μg/mL Zymosan) of the same substance?
A: Its pIC50 is 5.20 to 5.51.

Q: What about the MFC ([2]; 40 μg/mL Zymosan) of the same substance?
A: The MFC was 25 µM.

Q: What about the MIC ([2]; 40 μg/mL Zymosan) of the same substance?
A: The MIC was 6.25 µM.

Q: What about the pIC50 ([2]; 100 μg/mL LPS) of the same substance?
A: Its pIC50 is 5.20 to 5.51.

Q: And the MFC ([2]; 100 μg/mL LPS)?
A: The MFC was 12.5 µM.

Q: What about the MIC ([2]; 100 μg/mL LPS) of the same substance?
A: The MIC was 12.5 µM.

Q: And the pIC50 ([2]; 100 μg/mL Zymosan)?
A: Its pIC50 is 5.20 to 5.51.

Q: And the MFC ([2]; 100 μg/mL Zymosan)?
A: The MFC was 25 µM.

Q: And the MIC ([2]; 100 μg/mL Zymosan)?
A: The MIC was 6.25 µM.

Q: What about the MIC ([2]; without PAMP, Sabouraud broth, 30 °C, 24 h, 100% growth inhibition) of the same substance?
A: Its MIC is 6.25 µM.

Q: What about the pIC50 ([2]; without PAMP, Sabouraud broth, 30 °C, 24 h, lowest concentration inhibiting growth by at least 50%, twice in triplicate) of the same substance?
A: The pIC50 was 5.20 to 5.51.

Q: What about the MFC ([2]; without PAMP, plating on Sabouraud agar, 37 °C, 24 h, no colony growth) of the same substance?
A: The MFC was 12.5 µM.

— paper PMC11591356, “Immunomodulatory Effects of the Tobacco Defensin NaD1” (Antibiotics, 2024)
